# Where “and” joins values, the source holds several entries; their conditions need not be identical. Equal entries are not always repeated.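 Compound exposure: 48 hours, 5 concentrations, 96-well plates. GI50 = concentration required for 50% inhibition of growth. Definition used: TGI = concentration required for complete inhibition of growth.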
# Tests used:
# Assay in all cases: inhibition of tumour cell growth, NCI panel, 48 h
# [1] = test system: A498 renal
# [2] = test system: EKVX NSCLC
# [3] = test system: HL-60(TB) leukemia
# [4] = test system: NCI-H460 lung
# [5] = test system: NCI-H522 lung
# [6] = test system: PC-3 prostate
# [7] = test system: SF-295 CNS
# [8] = test system: SK-OV-3 ovarian
# [9] = test system: SNB-19 CNS
# [10] = test system: MDA-MB-435
SMILES,GI50 [1] [µM],TGI [1] [µM],GI50 [2] [µM],TGI [2] [µM],GI50 [3] [µM],TGI [3] [µM],GI50 [4] [µM],TGI [4],GI50 [5],TGI [5] [µM],GI50 [6] [µM],TGI [6],GI50 [7] [µM],TGI [7],GI50 [8],TGI [8] [µM],GI50 [9] [µM],TGI [9] [µM],GI50 [10],TGI [10] [µM]
COc1ccc(C2CC(c3ccccc3)=NN2C(=O)c2cc(OC)c(OC)c(OC)c2)cc1O (stereo not given),0.618,19.4,3.04,> 100,0.244,1.05,0.354,12.6 µM,0.335 µM,7.03,0.369,> 52.8 µM,0.366,> 38.5 µM,0.414 µM,16.6,0.645,> 100,,
Cc1ccccc1C=NC12CC3CC(CC(C3)C1)C2,,> 100,,> 100,,> 100,,> 100 µM,,> 100,,,,> 100 µM,,> 100,,> 100,,
CCC[CH2][Sn]1([CH2]CCC)[O]C(=O)CN=C(C)c2ccccc2[O]1,2.72,11.4,1.48,2.99,,,1.79,3.55 µM,0.179 µM,0.369,,,1.48,2.86 µM,2.37 µM,4.14,1.09,2.29,,
C/C=C(\C)c1cc(=O)c2c(C)cc3c(c2o1)C(OC)(OC(C)=O)c1c(O)c(C2CC(C)(N(C)C)C(OC(C)=O)C(C)O2)cc(C2CC(N(C)C)C(OC(C)=O)C(C)O2)c1C3=O (stereo not given),,3.49,,11.6,,,,,,,,> 100 µM,,14.6 µM,,8.59,,14.1,,
O=C(CC(=O)N1N=C(n2ccc3ccccc32)CC1c1ccccc1)Nc1ccc(Cl)cc1 (stereo not given),,> 100,,> 100,,> 100,,> 100 µM,,> 100,,,,> 100 µM,,> 100,,> 100,,
CCc1cccc(C)c1N1C(=O)C(=O)C(c2nc3ccccc3o2)/C(=N/NC(=S)NN)C1=O (stereo not given),,> 100,,> 100,,> 100,,> 100 µM,,> 100,,,,> 100 µM,,> 100,,> 100,,
N#CC(C#N)=Cc1ccc(C(O)P(=O)(O)O)cc1 (stereo not given),,> 100,,> 100,,> 100,,> 100 µM,,> 100,,,,> 100 µM,,> 100,,> 100,,
COc1cccc(CCNC(=O)CC(c2ccccc2)(c2ccccc2)c2ccccc2)c1,,,22.7,> 100,17.5,> 100,10.5,> 100 µM,,,6.12,> 100 µM,4.36,> 100 µM,> 100 µM,> 100,90.1,> 100,6.5 µM,> 100
O=C(O)CCC(=O)Oc1ccc(O)c2c1CCCC2=O,,> 100,,> 100,,> 100,,> 100 µM,,> 100,,,,> 100 µM,,> 100,,> 100,,
CCOC(=O)NC(=O)c1cn(CCCCCCCCCCC(=O)NCCCN2CCN(CCCNC(=O)CCCCCCCCCCn3cc(C(=O)NC(=O)OCC)c(=O)[nH]c3=O)CC2)c(=O)[nH]c1=O,,> 100,,,,> 100,,> 100 µM,,> 10,,,,> 100 µM,,> 100,,> 100,,
COc1ccc(/C(=C/c2ccc3ccccc3c2)c2nn[nH]n2)cc1OC,,,18.2,> 100,2.56,6.94,2.81,16.3 µM,1.14 µM,35.8,2.36,> 100 µM,1.51,51.1 µM,3.63 µM,> 100,7.84,> 100,,
N#CC(C(=O)CCC(=O)Nc1ccc(Cl)cc1)c1ccc(Cl)cc1 (stereo not given),,> 100,,> 100,,> 100,,> 100 µM,,> 100,,,,> 100 µM,,> 100,,> 100,,
Cc1cc(Cl)ccc1NC(=O)CC1SC(=NC(=O)c2ccccc2Cl)NC1=O (stereo not given),,> 100,,> 100,,4.72,,> 100 µM,,29,,,,> 100 µM,,,,> 100,,
Cc1ccc2nc(Sc3c([N+](=O)[O-])ncn3C)[nH]c2c1,,83.2,,63.9,,,,> 100 µM,,,,,,> 100 µM,,> 100,,> 100,,
N.N.N.N.N.N#Cc1nn[n-]n1.[Cl-].[Co+3],,,> 100,> 100,> 100,> 100,> 100,> 100 µM,,,,,> 100,> 100 µM,> 100 µM,> 100,> 100,> 100,,
O=C(Nc1ccccc1)n1cc(-c2ccccn2)c(N2CCOCC2)n1,,51.1,,> 100,,6.93,,> 100 µM,,6.58,,,,28.2 µM,,> 100,,> 100,,
COc1ccc(NC(=S)C#N)cc1,,> 100,,,,> 100,,,,,,> 100 µM,,> 100 µM,,> 100,,> 100,,> 100
COC(=O)[C@H](Cc1ccccc1)NNC(=O)c1csc([C@@H](C[C@H](C(C)C)N(C)C(=O)[C@@H](NC(=O)[C@H]2CCCCN2C)C2CC2)OC(C)=O)n1,,,,> 100,0.0013,0.00596,,25 µM and > 100 µM,0.00154 µM and 0.0144 µM,,,25 µM and > 100 µM,,25 µM and > 100 µM,0.48 µM and 1 µM,> 100,,> 100,0.00165 µM and 0.0151 µM,
CN1C(c2ccccc2)CC(C)(O)CC1c1ccccc1 (stereo not given),,> 100,,> 100,,> 100,,> 100 µM,,> 100,,,,> 100 µM,,> 100,,> 100,,
Cc1cc2c(C(=O)NCC#N)cccc2n1-c1nc2c(c(NCc3ccccc3)n1)CCCC2,,,0.329,2.4,0.311,> 100,0.261,0.686 µM,0.242 µM,0.842,,,0.191,0.444 µM,0.431 µM,2.78,0.499,2.91,0.249 µM,0.809
